Reference: ChEMBL document CHEMBL1143605, “A pharmacophore hypothesis for P-glycoprotein substrate recognition using GRIND-based 3D-QSAR” (2005)

Tested on: MES-SA
Assay: Inhibition of compound against MES-SA/DX5 cell line was determined using P-glycoprotein assay
Type: functional, Homo sapiens

Row | Compound | log10 % Pgp inhibition vs cyclosporin A
1 | C[C@H]1C[C@H]2[C@@H]3CCC4=CC(=O)C=C[C@]4(C)[C@H]3C(=O)C[C@]2(C)[C@@]1(O)C(=O)CO [MEPREDNISONE] | 0.86
2 | OCc1cc(C(O)CNCCCCCCOCCCCc2ccccc2)ccc1O (stereo unspecified) [SALMETEROL] | 0.83
3 | CC(C)(C)c1ccc(C(=O)CCCN2CCC(OC(c3ccccc3)c3ccccc3)CC2)cc1 [EBASTINE] | 1.76
4 | COc1ccc(CCN(C)CCCC(C#N)(c2ccc(OC)c(OC)c2)C(C)C)cc1OC (stereo unspecified) [VERAPAMIL] | 1.63
5 | CC(C)/N=c1\cc2n(-c3ccc(Cl)cc3)c3ccccc3nc-2cc1Nc1ccc(Cl)cc1 [CLOFAZIMINE] | 1.8
6 | CN(C)CC/C=C1/c2ccccc2Sc2ccc(Cl)cc21 [CHLORPROTHIXENE] | 1.27
7 | CSc1ccc2c(c1)N(CCC1CCCCN1C)c1ccccc1S2 (stereo unspecified) [THIORIDAZINE] | 1.65
8 | Cc1nc2sccn2c(=O)c1CCN1CCC(=C(c2ccc(F)cc2)c2ccc(F)cc2)CC1 [RITANSERIN] | 1.69
9 | CN1CCCC(n2nc(Cc3ccc(Cl)cc3)c3ccccc3c2=O)CC1 (stereo unspecified) [AZELASTINE] | 1.75
10 | CC(C)COCC(CN(Cc1ccccc1)c1ccccc1)N1CCCC1 (stereo unspecified) [BEPRIDIL] | 1.56
11 | CN1CCN(CC/C=C2/c3ccccc3Sc3ccc(S(=O)(=O)N(C)C)cc32)CC1 [THIOTHIXENE] | 1.23
12 | CCC(COC(=O)c1cc(OC)c(OC)c(OC)c1)(c1ccccc1)N(C)C (stereo unspecified) [TRIMEBUTINE] | 1.75
13 | CC[C@H]1CN2CCc3cc(OC)c(OC)cc3[C@@H]2C[C@@H]1C[C@H]1NCCc2cc(OC)c(OC)cc21 [EMETINE] | 0.88
14 | CC(=O)c1ccc2c(c1)N(CCCN(C)C)c1ccccc1S2 [ACEPROMAZINE] | 0.8
15 | CN(C)CCOC(C)(c1ccccc1)c1ccc(Cl)cc1 (stereo unspecified) [CHLORPHENOXAMINE] | 0.91
16 | CCN(CC)CC#CCOC(=O)C(O)(c1ccccc1)C1CCCCC1 (stereo unspecified) [OXYBUTYNIN] | 1.12
17 | CCSc1ccc2c(c1)N(CCCN1CCN(C)CC1)c1ccccc1S2 [THIETHYLPERAZINE] | 1.26
18 | CCCCc1oc2ccccc2c1C(=O)c1cc(I)c(OCCN(CC)CC)c(I)c1 [AMIODARONE] | 1.46
19 | COc1ccc([C@@H]2Sc3ccccc3N(CCN(C)C)C(=O)[C@@H]2OC(C)=O)cc1 [DILTIAZEM] | 1.18
20 | CCc1nn(CCCN2CCN(c3cccc(Cl)c3)CC2)c(=O)n1CCOc1ccccc1 [NEFAZODONE] | 1.83
21 | C=CC1CN2CCC1CC2C(=O)c1ccnc2ccc(OC)cc12 (stereo unspecified) | 1.26
22 | CC(C)(C)c1ccc(C(O)CCCN2CCC(C(O)(c3ccccc3)c3ccccc3)CC2)cc1 (stereo unspecified) [TERFENADINE] | 1.65
23 | OCCN1CCN(CCCN2c3ccccc3Sc3ccc(C(F)(F)F)cc32)CC1 [FLUPHENAZINE] | 1.4
24 | CCCCOc1cc(C(=O)OCCN(CC)CC)ccc1N [BENOXINATE] | 0.84
25 | CCN(CC)C(=O)N[C@H]1C[C@@H]2c3cccc4[nH]cc(c34)C[C@H]2N(C)C1 [TERGURIDE] | 1
26 | CN(C)C(=O)C(CCN1CCC(O)(c2ccc(Cl)cc2)CC1)(c1ccccc1)c1ccccc1 [LOPERAMIDE] | 1.58
